Results reported in patent US10894777B2, “TG2 inhibitor piperazine compounds and uses thereof” (UNIVERSITY OF OTTAWA, priority 2016, dated 2021).

Assays:
TG2 [1] = target: T1, TG2 (Homo sapiens, UniProt P21980); assay: BODIPY FL GTP-γ-S binding assay; details: NC9 120 μM, VA4 40 μM, VA5 40 μM; plus 0.5 mM CaCl2; 1 μM GTP-γ-S FL BODIPY
T1 sequence (P21980 1-687): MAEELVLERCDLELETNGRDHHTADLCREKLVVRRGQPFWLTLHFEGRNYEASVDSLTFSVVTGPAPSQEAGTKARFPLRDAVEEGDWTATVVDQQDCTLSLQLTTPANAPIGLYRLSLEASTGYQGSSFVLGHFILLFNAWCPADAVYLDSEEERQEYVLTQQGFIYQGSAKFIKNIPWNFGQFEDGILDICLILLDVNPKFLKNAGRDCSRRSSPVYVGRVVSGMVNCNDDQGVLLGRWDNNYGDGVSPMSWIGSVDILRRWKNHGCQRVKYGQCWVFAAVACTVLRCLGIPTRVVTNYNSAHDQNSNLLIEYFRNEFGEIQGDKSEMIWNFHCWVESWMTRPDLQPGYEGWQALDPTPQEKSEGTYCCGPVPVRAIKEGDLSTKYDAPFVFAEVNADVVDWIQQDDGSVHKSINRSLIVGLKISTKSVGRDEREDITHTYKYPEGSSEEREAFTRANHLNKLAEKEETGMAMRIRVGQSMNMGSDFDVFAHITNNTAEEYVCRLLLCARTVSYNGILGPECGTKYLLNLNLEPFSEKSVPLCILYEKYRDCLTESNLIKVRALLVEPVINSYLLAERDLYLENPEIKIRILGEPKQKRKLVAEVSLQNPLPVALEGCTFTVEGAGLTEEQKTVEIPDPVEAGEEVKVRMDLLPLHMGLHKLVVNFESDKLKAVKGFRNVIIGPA
Description: BODIPY FL GTP-γ-S binding assay. GTP binding was performed using a similar method as reported previously (McEwen, D. P. et al., Anal. […] TG2 (9 μg) was incubated with BODIPY GTP-γ-S at 25° C. for 10 min in 100 mM MOPS (pH=7.0) and 5 mM MgCl2 followed by addition of H2O, inhibitor alone or inhibitor plus 0.5 mM CaCl2. […] After 45 min incubation, fluorescence was then measured on a microplate reader (ex: 490 nm, em: 520 nm).

SCC-13 cells = assay: Matrigel invasion assay, SCC-13 cells; format: cell-based, human
Description: Invasion assay. Matrigel was diluted in 0.01 M Tris-HCl/0.7% NaCl, filter sterilized and 0.1 ml was used to coat individual BD BioCoat inserts (Millicell-PCF, 0.4 μm, 12 mm, PIHP01250). Cells (25,000) were plated in 100 μl in growth medium, supplemented with 1% FCS, in the upper chamber. The lower chamber contained growth medium supplemented with 10% FCS. After migration, the membranes were harvested and excess cells were removed from the upper membrane surface. The membrane was fixed in 4% paraformaldehyde, stained with 1 μg/m DAPI, and the underside of the membrane was photographed with an inverted fluorescent microscope and the number of cells counted.
Invasion assay. Matrigel (BD Biolabs) was diluted into 2 mL of 0.01 M Tris-HC/0.7% NaCl to a final concentration of 300 μg/mL, filter sterilized and 0.1 mL was added per BD BioCoat cell insert. After 2 hours, near-confluent SCC13-TG2-shRNA2 and SCC13-Control-shRNA cells were harvested and 25,000 cells were plated in 100 μL of growth media containing 1% FCS atop the Matrigel layer. Growth medium containing 10% FCS was added to the bottom chamber followed by an overnight incubation at 37° C. The following day a cotton swab was used to remove cells from the upper side of the membrane, the membrane was rinsed with phosphate-buffered saline, fixed with 4% paraformaldehyde for 10 min, washed again, and stained with 1 μg/mL DAPI for 10 min. The underside of the membrane was viewed with an inverted fluorescent microscope and nuclei were counted.
Invasion assay. Matrigel (BD Biolabs) was diluted into 2 ml of 0.01 M Tris-HC/0.7% NaCl to a final concentration of 300 μg/ml, filter sterilized, and 0.1 ml was added per BD BioCoat cell insert (8 microns pore size, surface area 0.3 cm2). After 2 h, near-confluent SCC-13 cells were harvested and 25,000 cells were plated in 100 μl of growth media containing 1% FCS atop the Matrigel layer. Growth medium containing 10% FCS was added to the bottom chamber followed by an overnight incubation at 37° C. The following day a cotton swab was used to remove cells from the upper side of the membrane, the membrane was rinsed with PBS, fixed with 4% paraformaldehyde, washed again, and stained with 1 μg/ml DAPI for 10 min. The underside of the membrane was viewed with an inverted fluorescent microscope, and nuclei were counted (Adhikary, G. et al., PLoS One 8:e84324, 2013).

TG2 [2] = target: T1, TG2; assay: In situ TG2 transamidase activity (FC incorporation), HaCaT cells; format: cell-based; parameters: endogenous in cells
Description: HaCaT cells were electroporated with mCer-TG2 or mCer-TG2-YAP and then treated with 0 or 5 μM of the indicated inhibitor and fluorescent lifetime was monitored. […] HaCaT cells were preloaded with fluorescein cadaverine, treated with the indicated inhibitor and then challenged with calcium ionophore, washed and assayed for FC incorporation. […] HaCaT were incubated for 48 h with the indicated inhibitor and extracts were prepared and incubated with GTP-agarose beads to measure TG2 binding to GTP agarose. The beads were then washed, boiled in Laemmli buffer and electrophoresed for immunoblot detection of TG2. Cell equivalent quantities of total and bound samples were electrophoresed to facilitate comparison of GTP bound versus total. […] Experiments were performed as described in FIGS. 31 (F) and (G).
In situ TG2 transamidase activity assay. Cells (40,000) were plated in 24-well attachment dishes in spheroid media and grown until 50% confluent. FC was added in 2 ml of serum-free medium at a final concentration of 20 μM and incubated for 4 h. […] After 30 min, the wells were supplemented with 10 NM A23187, a calcium ionophore.

Structure (SMILES) | GTP binding to TG2 (TG2 [1]) | matrigel invasion (SCC-13 cells; 20 μM pretreatment 1 hour, 24 hours) | invasion (SCC-13 cells; 20 μM pretreatment 2 h, 30 h) | matrigel invasion (SCC-13 cells; 20 μM, 24 h) | TG2 transamidase activity (FC incorporation) (TG2 [2])
C=CC(=O)NCCCC[C@H](NC(=O)OCc1ccccc1)C(=O)NCCOCCOCCNS(=O)(=O)c1cccc2c(N(C)C)cccc12 [NC9] | inhibit GTP binding to TG2 almost completely | reduced matrigel invasion | reduced | inhibited | suppressed TG2 transamidase activity
C=CC(=O)NCCCC[C@H](NC(=O)OCc1ccccc1)C(=O)N1CCN(S(=O)(=O)c2cccc3c(N(C)C)cccc23)CC1 [VA4, (S)-benzyl(6-acrylamido-1-(4-((5-(dimethylamino)naphthalen-1-yl)sulfonyl)piperazin-1-yl)-1-oxohexan-2-yl)carbamate] | inhibit GTP binding to TG2 almost completely |  |  | inhibited | suppressed TG2 transamidase activity
C=CC(=O)NCCCC[C@H](NC(=O)OCc1ccccc1)C(=O)N1CCN(C(=O)c2cc3ccc(O)cc3oc2=O)CC1 [VA5, (S)-Benzyl(6-acrylamido-1-(4-(7-hydroxy-2-oxo-2H-chromene-3-carbonyl)piperazin-1-yl)-1-oxohexan-2-yl)carbamate] | inhibit GTP binding to TG2 almost completely |  |  | inhibited | suppressed TG2 transamidase activity
